Here are results for 17 compounds from patent US7074789B2, “Kinase inhibitors” (Amgen Inc., priority 1999, dated 2006).

Holding throughout (format): biochemical
The target of experiment [1] is T1, EGFR (Homo sapiens, UniProt P00533).
T1 construct: Kinases are expressed as either kinase domains or full length constructs; made in house
Nature of the experiment: Kinase inhibition assay (33P transfer), EGFR. Conditions: Table 2, kinase inhibition class; read-out: EGFR-1. The essentials: (§1)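 GST/His-fusion kinases, E. coli or High Five expressed, affinity purified; 33P-ATP, plate-coated poly(Glu,Tyr) 4:1 or poly(Arg,Ser) 3:1; 0.5% H3PO4 wash, scintillant, LSC.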

For experiment [2], the target named is T2, Itk (Homo sapiens, UniProt Q08881).
T2 construct: Kinases are expressed as either kinase domains or full length constructs; made in house
T2 sequence (Q08881 1-620): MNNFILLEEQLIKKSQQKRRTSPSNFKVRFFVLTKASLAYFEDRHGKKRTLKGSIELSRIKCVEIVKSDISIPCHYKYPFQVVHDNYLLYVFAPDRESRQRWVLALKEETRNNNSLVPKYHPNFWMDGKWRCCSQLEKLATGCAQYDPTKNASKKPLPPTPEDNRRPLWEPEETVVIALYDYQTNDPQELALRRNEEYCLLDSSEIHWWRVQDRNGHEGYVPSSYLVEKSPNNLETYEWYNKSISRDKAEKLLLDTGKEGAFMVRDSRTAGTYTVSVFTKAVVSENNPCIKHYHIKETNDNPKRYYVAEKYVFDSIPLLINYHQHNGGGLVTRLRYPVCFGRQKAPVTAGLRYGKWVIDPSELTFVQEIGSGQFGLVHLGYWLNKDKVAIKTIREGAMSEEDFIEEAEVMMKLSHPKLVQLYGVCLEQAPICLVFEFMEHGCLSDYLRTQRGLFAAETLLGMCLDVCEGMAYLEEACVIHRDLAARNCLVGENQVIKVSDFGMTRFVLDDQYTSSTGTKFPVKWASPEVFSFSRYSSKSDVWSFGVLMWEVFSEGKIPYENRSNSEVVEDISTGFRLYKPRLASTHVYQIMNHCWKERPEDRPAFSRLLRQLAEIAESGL
Nature of the experiment: Kinase inhibition assay (33P transfer), Itk. The settings on record: Table 3; read-out: Itk-1. Put shortly: as §1

The target in experiment [3] is T3, Lck (Homo sapiens, UniProt P06239).
T3 construct: Kinases are expressed as either kinase domains or full length constructs; made in house
The experiment in a line: Kinase inhibition assay (33P transfer), Lck. Conditions: Table 3; read-out: Lck-1. Put shortly: (§2)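 Enzyme activity is taken as the amount of 33PO4 moved from ATP onto poly(Glu, Tyr) 4:1 or poly(Arg, Ser) 3:1 fixed to the plate surface. Unbound label is removed with 0.5% phosphoric acid before scintillation counting.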

For experiment [4], the target named is T4, IGFR-1 (Homo sapiens, UniProt P08069).
T4 construct: Kinases are expressed as either kinase domains or full length constructs; made in house
Nature of the experiment: Kinase inhibition assay (33P transfer), IGFR-1. The settings on record: Table 2, kinase inhibition class.

For experiment [5], the target named is T5, AKT (Homo sapiens, UniProt Q9Y243).
T5 construct: Kinases are expressed as either kinase domains or full length constructs; made in house
Nature of the experiment: Kinase inhibition assay (33P transfer), AKT. The settings on record: Table 2, kinase inhibition class; read-out: AKT3-1. Put shortly: as §2

The target of experiment [6] is T6, Kdr (Homo sapiens, UniProt P35968).
T6 construct: Kinases are expressed as either kinase domains or full length constructs; made in house
The experiment in a line: Kinase inhibition assay (33P transfer), Kdr. Conditions: Table 3; read-out: KDR-1. The essentials: as §2

Experiment [7] concerns the target T7, c-Met (Homo sapiens, UniProt P08581).
T7 construct: Kinases are expressed as either kinase domains or full length constructs; made in house
The experiment in a line: Kinase inhibition assay (33P transfer), c-Met. The settings on record: Table 2, kinase inhibition class; read-out: Met-1. The essentials:
as §1

The target of experiment [8] is T8, Tek (Homo sapiens, UniProt Q02763).
T8 construct: Kinases are expressed as either kinase domains or full length constructs; made in house
The experiment in a line: Kinase inhibition assay (33P transfer), Tek. Conditions: read-out: Tek-1. Put shortly: as §1

The target in experiment [9] is T9, Zap-70 (Homo sapiens, UniProt P43403).
T9 construct: Kinases are expressed as either kinase domains or full length constructs; made in house
T9 sequence (P43403 1-619): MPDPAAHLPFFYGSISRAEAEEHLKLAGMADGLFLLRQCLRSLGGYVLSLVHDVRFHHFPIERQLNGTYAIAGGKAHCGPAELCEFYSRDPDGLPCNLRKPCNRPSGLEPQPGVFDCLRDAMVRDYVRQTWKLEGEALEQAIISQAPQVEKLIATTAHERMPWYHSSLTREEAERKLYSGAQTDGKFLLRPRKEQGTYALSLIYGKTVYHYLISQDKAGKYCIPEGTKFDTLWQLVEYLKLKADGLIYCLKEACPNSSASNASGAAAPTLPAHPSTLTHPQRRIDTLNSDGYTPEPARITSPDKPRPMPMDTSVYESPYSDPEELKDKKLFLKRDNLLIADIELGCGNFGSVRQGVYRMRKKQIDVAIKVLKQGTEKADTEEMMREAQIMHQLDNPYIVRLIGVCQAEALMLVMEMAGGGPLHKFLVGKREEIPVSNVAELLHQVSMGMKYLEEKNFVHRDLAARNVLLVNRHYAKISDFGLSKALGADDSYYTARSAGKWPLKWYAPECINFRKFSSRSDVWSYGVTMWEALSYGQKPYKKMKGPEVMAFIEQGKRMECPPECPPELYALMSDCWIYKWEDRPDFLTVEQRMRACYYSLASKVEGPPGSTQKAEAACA
Nature of the experiment: Kinase inhibition assay (33P transfer), Zap-70. The settings on record: Table 3; read-out: Zap-1. The essentials: as §2

T8 sequence (Q02763 23-1124, species assumed): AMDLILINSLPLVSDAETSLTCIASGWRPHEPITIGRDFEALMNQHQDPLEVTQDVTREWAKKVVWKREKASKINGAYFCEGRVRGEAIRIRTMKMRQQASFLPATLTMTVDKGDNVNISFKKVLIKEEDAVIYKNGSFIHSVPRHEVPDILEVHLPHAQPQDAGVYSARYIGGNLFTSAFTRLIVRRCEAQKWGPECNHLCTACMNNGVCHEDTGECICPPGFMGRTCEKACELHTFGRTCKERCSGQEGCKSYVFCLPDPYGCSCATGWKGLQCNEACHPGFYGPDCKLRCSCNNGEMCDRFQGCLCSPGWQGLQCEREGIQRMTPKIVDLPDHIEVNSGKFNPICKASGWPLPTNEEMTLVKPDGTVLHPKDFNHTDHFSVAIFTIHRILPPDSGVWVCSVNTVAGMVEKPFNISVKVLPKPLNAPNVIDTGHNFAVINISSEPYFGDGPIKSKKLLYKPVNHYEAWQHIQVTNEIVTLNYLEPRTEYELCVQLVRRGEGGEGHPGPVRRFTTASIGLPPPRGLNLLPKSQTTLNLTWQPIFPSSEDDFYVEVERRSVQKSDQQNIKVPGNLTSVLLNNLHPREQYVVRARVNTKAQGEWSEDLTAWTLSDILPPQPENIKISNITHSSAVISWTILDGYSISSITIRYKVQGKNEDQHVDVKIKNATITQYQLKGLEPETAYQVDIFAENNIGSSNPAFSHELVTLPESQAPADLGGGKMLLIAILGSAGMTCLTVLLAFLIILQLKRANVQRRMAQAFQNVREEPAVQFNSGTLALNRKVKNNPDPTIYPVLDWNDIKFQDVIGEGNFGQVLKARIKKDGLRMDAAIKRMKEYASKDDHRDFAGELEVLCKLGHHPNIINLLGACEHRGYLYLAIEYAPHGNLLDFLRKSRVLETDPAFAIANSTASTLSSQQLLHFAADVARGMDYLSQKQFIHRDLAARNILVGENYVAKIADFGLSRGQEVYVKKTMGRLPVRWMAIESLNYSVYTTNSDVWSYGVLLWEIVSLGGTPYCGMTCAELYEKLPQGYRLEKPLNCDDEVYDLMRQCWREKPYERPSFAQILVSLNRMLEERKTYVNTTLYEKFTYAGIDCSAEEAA
T4 sequence (P08069 31-1367): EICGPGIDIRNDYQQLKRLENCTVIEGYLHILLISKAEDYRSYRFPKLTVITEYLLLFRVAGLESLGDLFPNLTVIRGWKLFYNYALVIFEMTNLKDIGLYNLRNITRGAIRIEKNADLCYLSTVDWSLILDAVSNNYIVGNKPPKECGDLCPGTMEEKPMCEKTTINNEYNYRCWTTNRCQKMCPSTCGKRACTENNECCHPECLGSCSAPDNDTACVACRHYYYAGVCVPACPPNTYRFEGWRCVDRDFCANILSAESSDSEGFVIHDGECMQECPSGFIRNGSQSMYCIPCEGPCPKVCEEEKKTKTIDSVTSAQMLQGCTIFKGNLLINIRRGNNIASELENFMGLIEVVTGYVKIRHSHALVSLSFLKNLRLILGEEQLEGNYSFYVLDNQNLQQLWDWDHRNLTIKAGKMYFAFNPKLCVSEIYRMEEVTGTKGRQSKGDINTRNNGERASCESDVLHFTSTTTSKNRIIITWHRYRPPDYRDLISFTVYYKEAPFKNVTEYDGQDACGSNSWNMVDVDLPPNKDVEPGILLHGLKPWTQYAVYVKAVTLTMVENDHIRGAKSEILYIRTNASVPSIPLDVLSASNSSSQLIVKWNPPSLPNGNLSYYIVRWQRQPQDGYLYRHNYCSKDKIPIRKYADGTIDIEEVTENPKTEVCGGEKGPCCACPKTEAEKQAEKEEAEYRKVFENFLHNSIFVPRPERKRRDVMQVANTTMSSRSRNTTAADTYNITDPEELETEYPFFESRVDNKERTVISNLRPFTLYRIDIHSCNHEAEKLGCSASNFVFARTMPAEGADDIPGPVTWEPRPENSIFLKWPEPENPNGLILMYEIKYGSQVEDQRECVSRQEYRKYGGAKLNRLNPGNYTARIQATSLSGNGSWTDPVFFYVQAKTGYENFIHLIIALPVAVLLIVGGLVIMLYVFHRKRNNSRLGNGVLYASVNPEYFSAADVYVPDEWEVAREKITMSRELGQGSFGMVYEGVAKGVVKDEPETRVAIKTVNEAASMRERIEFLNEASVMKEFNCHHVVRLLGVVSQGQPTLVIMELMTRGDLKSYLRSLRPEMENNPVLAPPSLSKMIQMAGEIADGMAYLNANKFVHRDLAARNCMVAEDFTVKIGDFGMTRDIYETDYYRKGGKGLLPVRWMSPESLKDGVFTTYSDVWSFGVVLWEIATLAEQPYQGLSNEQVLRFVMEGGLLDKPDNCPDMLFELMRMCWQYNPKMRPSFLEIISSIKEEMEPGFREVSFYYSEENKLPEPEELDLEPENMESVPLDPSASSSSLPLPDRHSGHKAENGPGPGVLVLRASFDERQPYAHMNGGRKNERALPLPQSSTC
T7 sequence (P08581 25-1390): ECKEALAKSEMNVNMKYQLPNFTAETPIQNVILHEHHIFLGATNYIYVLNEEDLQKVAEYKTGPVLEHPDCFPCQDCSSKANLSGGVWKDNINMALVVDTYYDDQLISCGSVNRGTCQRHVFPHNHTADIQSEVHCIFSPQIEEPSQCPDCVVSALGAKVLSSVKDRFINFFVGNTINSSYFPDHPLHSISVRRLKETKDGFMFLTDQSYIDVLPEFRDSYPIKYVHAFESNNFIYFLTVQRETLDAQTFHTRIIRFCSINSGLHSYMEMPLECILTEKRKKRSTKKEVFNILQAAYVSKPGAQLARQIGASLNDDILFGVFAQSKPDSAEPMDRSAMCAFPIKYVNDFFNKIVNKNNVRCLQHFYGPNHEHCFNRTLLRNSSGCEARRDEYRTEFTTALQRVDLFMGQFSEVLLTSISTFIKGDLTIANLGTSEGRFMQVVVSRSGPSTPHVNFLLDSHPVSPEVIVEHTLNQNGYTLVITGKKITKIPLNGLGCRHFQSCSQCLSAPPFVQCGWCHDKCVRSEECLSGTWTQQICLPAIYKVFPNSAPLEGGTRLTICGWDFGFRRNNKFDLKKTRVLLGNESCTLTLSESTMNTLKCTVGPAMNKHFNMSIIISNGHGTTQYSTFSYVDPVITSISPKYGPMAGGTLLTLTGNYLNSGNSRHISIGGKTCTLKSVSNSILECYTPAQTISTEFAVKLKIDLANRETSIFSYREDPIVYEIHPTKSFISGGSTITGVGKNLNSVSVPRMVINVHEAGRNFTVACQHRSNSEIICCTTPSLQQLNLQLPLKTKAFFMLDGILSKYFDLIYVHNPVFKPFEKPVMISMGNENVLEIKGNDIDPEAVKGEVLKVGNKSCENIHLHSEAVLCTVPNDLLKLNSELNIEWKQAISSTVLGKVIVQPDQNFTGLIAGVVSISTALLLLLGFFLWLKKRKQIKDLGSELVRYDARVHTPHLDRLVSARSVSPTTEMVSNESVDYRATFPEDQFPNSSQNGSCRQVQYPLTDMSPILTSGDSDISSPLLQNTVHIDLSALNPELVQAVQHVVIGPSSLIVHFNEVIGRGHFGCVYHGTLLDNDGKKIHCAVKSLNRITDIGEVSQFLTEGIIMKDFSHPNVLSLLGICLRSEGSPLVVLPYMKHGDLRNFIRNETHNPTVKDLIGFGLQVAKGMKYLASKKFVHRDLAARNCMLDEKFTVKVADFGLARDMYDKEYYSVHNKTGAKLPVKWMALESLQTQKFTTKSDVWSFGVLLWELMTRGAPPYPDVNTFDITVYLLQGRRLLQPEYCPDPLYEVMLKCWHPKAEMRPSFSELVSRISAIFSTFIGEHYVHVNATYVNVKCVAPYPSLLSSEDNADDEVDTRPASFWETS
T3 sequence (P06239 whole entry, species assumed, the tested form may be a part): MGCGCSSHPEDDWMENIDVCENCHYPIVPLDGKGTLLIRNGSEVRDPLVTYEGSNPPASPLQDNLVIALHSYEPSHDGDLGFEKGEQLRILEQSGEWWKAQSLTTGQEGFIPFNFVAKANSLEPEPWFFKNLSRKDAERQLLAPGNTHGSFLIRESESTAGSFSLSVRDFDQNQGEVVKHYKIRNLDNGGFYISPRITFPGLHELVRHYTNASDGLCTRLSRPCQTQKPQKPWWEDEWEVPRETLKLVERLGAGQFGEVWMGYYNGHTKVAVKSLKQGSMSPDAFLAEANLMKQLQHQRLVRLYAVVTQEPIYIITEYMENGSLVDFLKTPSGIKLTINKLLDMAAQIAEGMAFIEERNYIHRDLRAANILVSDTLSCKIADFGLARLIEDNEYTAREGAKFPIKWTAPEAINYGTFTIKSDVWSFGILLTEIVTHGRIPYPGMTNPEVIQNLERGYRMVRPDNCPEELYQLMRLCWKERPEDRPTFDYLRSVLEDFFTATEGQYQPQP
T5 sequence (Q9Y243 whole entry, the tested form may be a part): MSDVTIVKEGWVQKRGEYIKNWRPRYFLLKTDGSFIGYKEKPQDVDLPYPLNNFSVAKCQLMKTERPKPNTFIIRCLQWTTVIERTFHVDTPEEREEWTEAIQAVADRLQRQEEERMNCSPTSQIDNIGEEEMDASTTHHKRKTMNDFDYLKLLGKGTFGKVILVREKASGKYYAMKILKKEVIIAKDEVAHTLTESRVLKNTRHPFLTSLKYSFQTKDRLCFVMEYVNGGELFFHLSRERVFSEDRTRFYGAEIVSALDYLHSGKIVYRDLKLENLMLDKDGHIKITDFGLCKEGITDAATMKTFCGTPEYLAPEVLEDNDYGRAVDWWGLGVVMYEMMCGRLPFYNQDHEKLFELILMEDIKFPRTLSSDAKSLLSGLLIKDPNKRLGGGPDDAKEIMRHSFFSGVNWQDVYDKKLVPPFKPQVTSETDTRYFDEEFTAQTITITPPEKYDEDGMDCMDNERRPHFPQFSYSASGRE

Turning to `Oc1ccc(Nc2ncnc(-c3ccccc3)n2)cc1` [Compound 11], the IC50 is more than 17 µM in experiment [1]; more than 17 µM in experiment [2]; 9.08 to 13.2 µM in experiment [3]; more than 17 µM in [4]; more than 17 µM in experiment [5]; 1.51 to 9.08 µM in [6]. For the same compound, the IC50 in experiment [7], in [8] and in experiment [9] was more than 17 µM throughout.
Regarding `COc1ccccc1Nc1ncnc(-c2ccccc2)n1` [Compound 12], the IC50 in experiment [1] is more than 16.2 µM; in experiment [2] it was more than 16.2 µM; in experiment [3] it was more than 16.2 µM; in experiment [4] it was more than 16.2 µM; in experiment [5] it was more than 16.2 µM; in [6], 12.6 to 16.2 µM. For the same compound, the IC50 in experiment [7], in experiment [8] and in [9] was more than 16.2 µM throughout.
Take `COc1cccc(Nc2ncnc(-c3ccccc3)n2)c1` [Compound 13]: the IC50 in experiment [1], in experiment [2], in [3], in experiment [4], in experiment [5] and in [6] was more than 16.2 µM throughout. Moreover, the IC50 in [7], in experiment [8] and in [9] was more than 16.2 µM each time.
As to `COc1ccc(Nc2ncnc(-c3ccccc3)n2)cc1` [Compound 14], the IC50 in experiment [1], in experiment [2], in [3], in experiment [4], in experiment [5] and in experiment [6] was more than 16.2 µM throughout. The results for the IC50 in experiment [7], in [8] and in experiment [9] were more than 16.2 µM, more than 16.2 µM and 12.6 to 16.2 µM, respectively.
For the compound `COc1cc(Nc2ncnc(-c3ccccc3)n2)cc(OC)c1` [Compound 15], the IC50 in experiment [1], in [2], in experiment [3], in [4], in experiment [5] and in experiment [6] was more than 14.6 µM each time. Besides, the IC50 is more than 14.6 µM in [7], more than 14.6 µM in experiment [8] and 11.4 to 14.6 µM in [9].
For `Oc1cccc(Nc2ncnc(-c3ccccc3)n2)c1` [Compound 18], the IC50 is more than 17 µM in experiment [1]; more than 17 µM in [2]; 9.08 to 13.2 µM in experiment [3]; more than 17 µM in experiment [4]; more than 17 µM in [5]; 9.08 to 13.2 µM in [6]. Also, the IC50 in experiment [7], in [8] and in experiment [9] was more than 17 µM each time.
`CC(C)(C)OC(=O)Nc1ccc(Nc2ncnc(-c3ccccc3)n2)cc1` [Compound 19]: the IC50 was more than 12.4 µM in experiment [1]; more than 12.4 µM in experiment [2]; more than 12.4 µM in experiment [3]; 6.6 to 9.63 µM in [4]; more than 12.4 µM in experiment [5]; 6.6 to 9.63 µM in experiment [6]. The IC50 in [7] is more than 12.4 µM; in experiment [8], more than 12.4 µM; in [9], 6.6 to 9.63 µM.
Consider `COc1cccc(Nc2ncnc(Nc3ccc(OCc4ccccc4)cc3)n2)c1` [Compound 160], for which the IC50 in experiment [1] is 1 to 6.01 µM; in experiment [2] it was more than 11.3 µM; in experiment [3] it was more than 11.3 µM; in [4], more than 11.3 µM; in [5], 8.76 to 11.3 µM; in experiment [6], more than 11.3 µM. Also, the IC50 in experiment [7] was 8.76 to 11.3 µM; in experiment [8], more than 11.3 µM; in experiment [9], more than 11.3 µM.
In the case of `COc1ccc(Nc2ncnc(Nc3ccc(OCc4ccccc4)cc3)n2)cc1` [Compound 161], the IC50 in [1] is more than 11.3 µM; in experiment [2], more than 11.3 µM; in [3], more than 11.3 µM; in [4], more than 11.3 µM; in experiment [5], 6.01 to 8.76 µM; in experiment [6], 1 to 6.01 µM. The IC50 was more than 11.3 µM in [7], 6.01 to 8.76 µM in [8] and more than 11.3 µM in experiment [9].
As for `COc1cc(Nc2ncnc(-n3c(NCC(N)=O)nc4ccccc43)n2)cc(OC)c1OC` [Compound 389], the IC50 in experiment [1] is more than 9.99 µM; in experiment [2], more than 9.99 µM; in [3], more than 9.99 µM; in [4], less than 0.888 µM; in [5], more than 9.99 µM; in experiment [6] it was more than 9.99 µM. The IC50 in experiment [7], in experiment [8] and in [9] was more than 9.99 µM in each case.
Take `COc1cc(Nc2ncnc(Cl)n2)cc(OC)c1OC` [Compound 924, 2-chloro-4-(3′,4′,5′-trimethoxyanilino)-1,3,5-triazine]: the IC50 in [1] was more than 15.2 µM; in experiment [2], more than 15.2 µM; in [3] it was more than 15.2 µM; in [4] it was more than 15.2 µM; in [5], more than 15.2 µM; in experiment [6] it was 1.35 to 8.09 µM. Moreover, the IC50 in [7] and in experiment [9] was more than 15.2 µM each time.
As for `COc1cc(Nc2ncnc(N)n2)cc(OC)c1OC` [Compound 925], the IC50 in experiment [1] was more than 16.2 µM; in [2], more than 16.2 µM; in experiment [3], 1.44 to 8.66 µM; in [4], more than 16.2 µM; in experiment [5], more than 16.2 µM; in experiment [6] it was more than 16.2 µM. The IC50 in experiment [7] and in [9] was more than 16.2 µM in each case.
In the case of `OCCCNc1ncnc(-c2ccccc2)n1` [Compound 971], the IC50 in experiment [1], in experiment [2], in experiment [3], in [4], in [5] and in experiment [6] was more than 19.5 µM in each case. For the same compound, the IC50 in experiment [7] and in [9] was more than 19.5 µM each time.
With `NC(=O)c1ccc(Nc2ncnc(-c3ccccc3)n2)cc1` [Compound 1028], the IC50 in [1], in [2], in [3], in experiment [4], in experiment [5] and in experiment [6] was more than 15.4 µM in each case. Further, the IC50 in experiment [7] and in experiment [9] was more than 15.4 µM throughout.
`Nc1nc2ccccc2n1-c1ncnc(Cl)n1` [Compound 1029]: the IC50 in experiment [1] was more than 18.2 µM; in [2], more than 18.2 µM; in experiment [3], more than 18.2 µM; in experiment [4] it was more than 18.2 µM; in experiment [5], more than 18.2 µM; in experiment [6] it was 14.2 to 18.2 µM. Also, the IC50 in [7] is more than 18.2 µM; in experiment [9] it was 9.73 to 14.2 µM.
For `c1csc(-c2ncnc(Nc3ccc4c(c3)OCO4)n2)c1` [Compound 1072], the IC50 was more than 15.1 µM in experiment [1]; more than 15.1 µM in [2]; more than 15.1 µM in experiment [3]; more than 15.1 µM in experiment [4]; more than 15.1 µM in experiment [5]; 8.04 to 11.7 µM in [6]. Moreover, the IC50 in [7] is 11.7 to 15.1 µM; in experiment [9], more than 15.1 µM.
On to `Fc1cccc(Nc2ncnc(-c3cccs3)n2)c1` [Compound 1073], for which the IC50 in experiment [1], in [2], in [3], in experiment [4], in experiment [5] and in experiment [6] was more than 16.5 µM throughout. Also, the IC50 in [7] and in [9] was more than 16.5 µM in each case.
